Values of other authors in patent publication EP0630652A2, “Contrast media” (NYCOMED SALUTAR, INC., priority 1991, dated 1993).

Tests used:
[1] = Unger et al. Invest. Radiol. 21: 802 (1986)
[2] = Caussen et al. ROFO 148: 683

Compound	LD₅₀ [1] [mmol/kg]	side effect ([2]; GI tract use)	contrast improvement in the GI tract ([2]; MRI)
O=C([O-])CN(CCN(CC(=O)[O-])CC(=O)[O-])CCN(CC(=O)[O-])CC(=O)[O-].[Yb+3] [ytterbium DTPA]	10	–	–
O=C([O-])CN(CCN(CC(=O)[O-])CC(=O)O)CCN(CC(=O)[O-])CC(=O)O.[Gd+3] [GdDTPA]	–	diarrhoea	relatively poor
